Reference: patent US9006232B2, “Pyrimidone derivatives” (Mitsubishi Tanabe Pharma Corporation, priority 2009, dated 2015)

Target: bovine cerebral TPK1 (Bos taurus, UniProt A0A059UE90)
Assay: Inhibitory activity against P-GS1 phosphorylation by bovine cerebral TPK1
Assay type: biochemical
Conditions: P-GS1 phosphorylation, 41.7 μM [γ-32P] ATP, 25° C., 2 hours; read-out: IC50

Sequence of bovine cerebral TPK1 (A0A059UE90 1-419): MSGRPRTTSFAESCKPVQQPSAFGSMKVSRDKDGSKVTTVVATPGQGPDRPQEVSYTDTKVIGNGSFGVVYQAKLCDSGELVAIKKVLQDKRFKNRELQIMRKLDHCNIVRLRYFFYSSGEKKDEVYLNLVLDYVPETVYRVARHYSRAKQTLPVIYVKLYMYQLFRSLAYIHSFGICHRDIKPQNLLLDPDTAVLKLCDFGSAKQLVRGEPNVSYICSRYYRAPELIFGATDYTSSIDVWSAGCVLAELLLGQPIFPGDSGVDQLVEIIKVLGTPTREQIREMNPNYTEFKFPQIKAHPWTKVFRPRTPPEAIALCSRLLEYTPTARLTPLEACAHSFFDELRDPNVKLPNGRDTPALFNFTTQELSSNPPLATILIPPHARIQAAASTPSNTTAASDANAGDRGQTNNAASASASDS

SMILES	IC50
Cn1c(OCCCc2cccnc2)nc(-c2ccncn2)cc1=O [1.810, 1-Methyl-2-(3-pyridin-3-yl-propoxy)-1H-[4,4′]bipyrimidinyl-6-one]	201 nM
Cn1c(OC2CCN(c3ccc(N4CCN(C(=O)OC(C)(C)C)CC4)cc3)CC2)nc(-c2ccncn2)cc1=O [1.211, tert-Butyl 4-{4-[4-(1-methyl-6-oxo-1,6-dihydro-[4,4′]bipyrimidinyl-2-yloxy)piperidin-1-yl]phenyl}piperazine-1-carboxylate]	977 nM
Cn1c(OC2CCN(CCC3CCNCC3)CC2)nc(-c2ccncn2)cc1=O [Compound No. 1.501, 1-Methyl-2-[1-(2-piperidin-4-yl-ethyl)piperidin-4-yloxy]-1H-[4,4′] bipyrimidinyl-6-one]	69 nM
Cn1c(OC2CCN(CCC3CCN(Cc4ccccc4)CC3)CC2)nc(-c2ccncn2)cc1=O [Compound No. 1.502, 2-{1-[2-(1-Benzyl-piperidin-4-yl)ethyl]piperidin-4-yloxy}-1-methyl-1H-[4,4′]bipyrimidinyl-6-one]	33.9 nM

Second part, the compound after the results:

IC50	SMILES
11.7 nM	Cn1c(OC2CCCN(c3ccccn3)C2)nc(-c2ccncn2)cc1=O (stereo not shown) [1.108, 1-Methyl-2-(1-pyridin-2-yl-piperidin-3-yloxy)-1H-[4,4′]bipyrimidinyl-6-one]
73.2 nM	Cn1c(OC[C@H]2CCN(c3ccsc3)C2)nc(-c2ccncc2F)cc1=O [Compound No. 2.206, 6-(3-Fluoro-pyridin-4-yl)-3-methyl-2-[(3S)-1-(thiophen-3-yl)pyrrolidin-3-ylmethoxy]-3H-pyrimidin-4-one]
12 nM	Cn1c(OC2CCN(c3ccc(CN4CCCC4)cc3)CC2)nc(-c2ccncn2)cc1=O [1.217, 1-Methyl-2-[1-(4-pyrrolidin-1-ylmethyl-phenyl)piperidin-4-yloxy]-1H-[4,4′]bipyrimidinyl-6-one]
64.9 nM	CC(=O)N1CCN(Cc2ccc(N3CCC(Oc4nc(-c5ccncn5)cc(=O)n4C)CC3)cc2)CC1 [1.212, 2-{1-[4-(4-Acetyl-piperazin-1-ylmethyl)phenyl]piperidn-4-yloxy}-1-methyl-1H-[4,4′]bipyrimidinyl-6-one]
18.4 nM	Cn1c(OC[C@@H]2CCCN2c2ccc(F)cc2)nc(-c2ccncc2F)cc1=O [2.205, 2-[(2S)-1-(4-Fluoro-phenyl)pyrrolidin-2-ylmethoxy]-6-(3-fluoro-pyridin-4-yl)-3-methyl-3H-pyrimidin-4-one]
108 nM	Cn1c(OC2CCN(C(=O)Oc3ccccc3)CC2)nc(-c2ccncn2)cc1=O [1.112, Phenyl 4-(1-methyl-6-oxo-1,6-dihydro-[4,4′]bipyrimidinyl-2-yloxy) piperidine-1-carboxylate]
